Reference: patent US8039501B2, “Synephrine derivatives useful as anti-inflammatory agents” (Universiteit Gent, priority 2005, dated 2011)

Molecular target: T1, glucocorticoid receptor (GR) (Homo sapiens, UniProt P04150)
T1 construct: endogenous in cells; host or cells: primary fibroblast-like synoviocytes from RA patients
T1 sequence (P04150 1-777): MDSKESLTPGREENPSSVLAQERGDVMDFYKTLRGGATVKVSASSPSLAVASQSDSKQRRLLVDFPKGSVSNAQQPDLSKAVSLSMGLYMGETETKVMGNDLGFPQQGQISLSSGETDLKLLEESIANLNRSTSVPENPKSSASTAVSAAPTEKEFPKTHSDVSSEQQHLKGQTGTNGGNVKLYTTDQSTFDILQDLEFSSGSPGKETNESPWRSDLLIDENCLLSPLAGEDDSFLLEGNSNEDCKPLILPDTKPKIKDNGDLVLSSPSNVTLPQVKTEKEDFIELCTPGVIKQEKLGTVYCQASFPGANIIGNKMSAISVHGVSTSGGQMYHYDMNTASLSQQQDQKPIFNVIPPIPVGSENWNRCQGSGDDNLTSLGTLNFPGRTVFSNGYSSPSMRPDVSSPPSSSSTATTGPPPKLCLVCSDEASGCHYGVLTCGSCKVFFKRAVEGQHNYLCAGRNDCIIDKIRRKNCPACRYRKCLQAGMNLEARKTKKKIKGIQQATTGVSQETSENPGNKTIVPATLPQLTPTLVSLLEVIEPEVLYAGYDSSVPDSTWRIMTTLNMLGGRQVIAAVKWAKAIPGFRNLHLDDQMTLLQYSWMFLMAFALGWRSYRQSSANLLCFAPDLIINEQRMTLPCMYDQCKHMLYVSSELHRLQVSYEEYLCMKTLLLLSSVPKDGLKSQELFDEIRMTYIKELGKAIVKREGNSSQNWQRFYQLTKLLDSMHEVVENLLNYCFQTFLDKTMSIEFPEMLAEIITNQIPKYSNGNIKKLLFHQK
Experiment: Western blot of homologous down-regulation of GR in FLS
Type: cell-based
Details: 10 μM, 3, 6, 9 or 24 hours, FIG. 22A
Method: CpdA was synthesized as described previously. […] They were sacrificed and livers were isolated. […] Gene expression of HPRT was used for normalization. […] Gene expression of HPRT was used for normalization. […] Gene expression of HPRT was used for normalization. Statistical significance was determined by one way anova. […] Gene expression of HPRT was used for normalization. […] Gene expression of HPRT was used for normalization. Statistical significance was determined by one way anova. […] Statistical significance was determined with a Kruskal-Wallis test.
Western blot analysis was performed on total protein extracts with an anti-GR(H-300) antibody. The detection of ERK was used as a loading control. After 8 days of treatment liver samples were taken from the PBS, DEX (20 μg) or CpdA (300 μg) treated DBA/1 mice (FIG. 22B). Q-PCR was performed for the detection of GR in the different samples. Statistical significance was determined with a Mann-Whitney Test. FLS were pre-treated with solvent, DEX (1 μM) or CpdA (10 μM) for 1 hour (set-up 1) or 24 hours (set-up 2), as indicated in the figures. Afterwards, TNF (2000 units/ml) was added for 6 h. Western blot analysis was performed on total extracts with an anti-GR(H-300) antibody (FIG. 19A). Detection of ERK was used as a loading control. […] Statistical significance was determined by one way anova. […]

Structure (SMILES): CNCC(Cl)c1ccc(OC(C)=O)cc1.Cl (stereo not shown) [CpdA, 2-(4-acetoxyphenyl)-2-chloro-N-methyl-ethylammonium chloride]
- Ligand-induced down-regulation of the glucocorticoid receptor (GR): does not evoke a ligand-induced down-regulation of the glucocorticoid receptor (GR)
